What was measured:
Type in all cases: cell-based
Escherichia coli = assay: Minimum Inhibitory Concentration (MIC) by spiral plater / spiral gradient endpoint against Escherichia coli
Procedure: (§1) Synergistic Index=Qa/QA+Qb/QB [Equation No. 1] • where Qa=the quantity of component A used in a binary mixture that gives the desired effect • QA=the quantity of component A which when used alone gives the desired effect • Qb=the quantity of component B used in a binary mixture that gives the desired effect • QB=the quantity of component B which when used alone gives the desired effect
(§2) Minimum Inhibitory Concentration (“MIC”) for each of the antimicrobial compositions was determined against a test microbe, which in this case was a spore suspension of the fungus Alternaria alternata, with the aid of an Autoplate 4000 spiral plater that is commercially available from Spiral Biotech, Inc., Norwood, Mass., and its accompanying spiral gradient endpoint software (hereinafter referred to as “the SGE software”). The spiral plater automates the normal serial dilution method for determining MICs. Although the details of the SGE software are held confidentially by Spiral Biotech, Inc., they are believed to consistent with the principles set forth in “Measurement of MICs of antibacterial agents by spiral gradient endpoint compared with conventional dilution method” J. H. Paton, H. A. Holt, and M. J. Bywater—Int. J. Exp. Clin. Chemother, 1990.
The spiral plater automatically applied 54.3 micro-liters of each antimicrobial composition of interest to the surface of 150 millimeter malt agar plates using an exponential application gradient. The concentration of the antimicrobial concentration was greatest near the center of the Petri plates and decreased toward the edges. […]
Inoculated spiral gradient plates were incubated for 48 hours in an incubator at 28° C. […] This growth endpoint value (expressed in mm as measured from center point of the Petri plate) was used to calculate MIC for the mixture, expressed as parts per million.
Utilizing the experimental procedure described above in Example 1, the MIC against Escherichia coli of several antibacterial compositions containing zinc gluconate, BIT, or both in water were determined.

Alternaria alternata = assay: Minimum Inhibitory Concentration (MIC) by spiral plater / spiral gradient endpoint against Alternaria alternata
Procedure: as §1, §2
Spore suspensions for the test microbe were prepared by growing Alternaria alternata on a Difco malt agar slant in an incubator for 1 week at 28° C. Spores were loosened by adding a small amount of buffer solution at pH 7.0 and scraping with a sterile nichrome wire loop. This process was repeated twice. The buffer solution included phosphate buffer and magnesium chloride, and was obtained commercially from Thomas Scientific Company, as Lot #023-0703.
Loosened spores were removed from the slant by aseptically pouring them into a sterile bottle containing 30 ml of the buffer solution and a volume of approximately 40 ml of 6 mm diameter borosilicate glass beads. The bead bottle was shaken to disperse the spores and adjusted to a final liquid volume of 50 ml. For use as a test inoculum, spore density was adjusted in distilled water blanks to that of a 0.5 McFarland nephelometer standard.
(§3) The spiral plater automatically applied 54.3 micro-liters of each antimicrobial composition of interest to the surface of 150 millimeter malt agar plates using an exponential application gradient. The concentration of the antimicrobial concentration was greatest near the center of the Petri plates and decreased toward the edges. Antimicrobial composition gradients were allowed to air dry at room temperature for 1 to 4 hours at 23° C. before inoculation with test microbe. Spiral gradient plates were inoculated by streaking with cotton swabs that had been soaked in test microbe spore suspension. Streaks were applied in a radial pattern, using a paper template generated by the SGE software to guide the application. Eight radii were inoculated per Petri plate. Each radius is considered as one replicated observation.
(§4) Inoculated spiral gradient plates were incubated for 48 hours in an incubator at 28° C. Visible growth of the test microbe developed along the radial streaks and ended where the concentration of the antimicrobial composition was sufficient to prevent growth. This growth endpoint value (expressed in mm as measured from center point of the Petri plate) was used to calculate MIC for the mixture, expressed as parts per million.
Utilizing the procedure described above in Example 1, Minimum Inhibitory Concentration (“MIC”) for each of the antimicrobial compositions was determined against a test microbe, which in this case was a spore suspension of the […] Alternaria alternata.

Pseudomonas aeruginosa = assay: Minimum Inhibitory Concentration (MIC) by spiral plater / spiral gradient endpoint against Pseudomonas aeruginosa; conditions: quantity of BIT used alone that gives the desired effect, Pseudomonas aeruginosa
Procedure: as §1, §2, §3, §4
Utilizing the procedure described above in Example 1, Minimum Inhibitory Concentration (“MIC”) for each of the antimicrobial compositions was determined against a test microbe, which in this case was a spore suspension of the bacterium Pseudomonas aeruginosa. Several antimicrobial compositions containing calcium gluconate, BIT, or both in water were investigated, as shown below in Table 7.
Utilizing the procedure described above in Example 1, Minimum Inhibitory Concentration (“MIC”) for each of the antimicrobial compositions was determined against a test microbe, which in this case was a […] Pseudomonas aeruginosa. Several antimicrobial compositions containing calcium glycerate, BIT, or both in water were investigated, as shown below in Table 13.
Utilizing the procedure described above in Example 1, Minimum Inhibitory Concentration (“MIC”) of certain antimicrobial compositions was determined against a test microbe, which in this case was a spore suspension of the bacterium Pseudomonas aeruginosa. Several antimicrobial compositions containing zinc gluconate, BIT, or both in water were investigated, as shown below in Table 19.

Staphylococcus aureus = assay: Minimum Inhibitory Concentration (MIC) by spiral plater / spiral gradient endpoint against Staphylococcus aureus

O=c1[nH]sc2ccccc12 [BIT, 1,2-benzisothiazol-3(2H)-one]
QB (Escherichia coli; MIC of BIT alone for Escherichia coli (average of Trials 1, 2), used for SI): 136 ppm
ppm of BIT alone providing the same inhibition (Escherichia coli; zinc gluconate-BIT series, Escherichia coli): 136 ppm
QB (Alternaria alternata; MIC of BIT alone for Alternaria alternata, used for SI (zinc ethylhexanoate series)): 13 ppm
QB (Alternaria alternata; MIC of BIT alone for Alternaria alternata, used for SI (zinc glycerate series)): 8.3 ppm
QB (Alternaria alternata; quantity of BIT used alone that gives the desired effect, calcium ethylhexanoate-BIT series, Alternaria alternata): 13 ppm
QB (Alternaria alternata; quantity of BIT used alone that gives the desired effect, calcium gluconate-BIT series, Alternaria alternata): 13 ppm
QB (Alternaria alternata; quantity of BIT used alone that gives the desired effect, calcium glycerate-BIT series, Alternaria alternata): 85 ppm
ppm of BIT alone providing the same inhibition (Alternaria alternata; zinc ethylhexanoate-BIT series, Alternaria alternata): 13 ppm
ppm of BIT alone providing the same inhibition (Alternaria alternata; zinc glycerate-BIT series, Alternaria alternata): 8.3 ppm
QB (Pseudomonas aeruginosa; calcium gluconate-BIT series): 85 ppm
QB (Pseudomonas aeruginosa; calcium glycerate-BIT series): 27.5 ppm
QB (Pseudomonas aeruginosa; zinc gluconate-BIT series): 661 ppm
QB (Staphylococcus aureus; MIC of BIT alone for Staphylococcus aureus, used for SI): 16 ppm
ppm of BIT alone providing the same inhibition (Staphylococcus aureus; zinc glycerate-BIT series, Staphylococcus aureus): 16 ppm

— patent US20180332847A1, “ANTIMICROBIAL METAL CARBOXYLATE-BENZISOTHIAZOLINONE MIXTURES” (Troy Corporation, priority 2017, published 2018)
